Results from ChEMBL document CHEMBL3885861, “Open TG-GATES”.

Species: Rattus norvegicus
Assay: Open TG-GATES - Regimen: Daily Repeat
Assay type: toxicity, organism-based, Sprague-Dawley
Design: regimen Daily Repeat, gender Male, age 6 weeks
Conditions: in vivo, iv, 1 mg/kg, route intravenous injection, dose level High; for KIDNEY_L / KIDNEY_R / KIDNEY_TOTAL: tissue Kidney; for LIVER: tissue Liver
[1] = 72 h, tissue Plasma, time 3 day
[2] = […], tissue Plasma, time 14 day
[3] = […], tissue Plasma, time 28 day

CISPLATIN
MCV (72 h, tissue Blood, time 3 day): 61.4 fL
Mono (72 h, tissue Blood, time 3 day): 2.2%
Neu (72 h, tissue Blood, time 3 day): 9%
PT (72 h, tissue Blood, time 3 day): 15.7 s
Plat (72 h, tissue Blood, time 3 day): 137 x10_4/uL
RBC (72 h, tissue Blood, time 3 day): 667 x10_4/ul
Ret (72 h, tissue Blood, time 3 day): 2.5%
WBC (72 h, tissue Blood, time 3 day): 69.2 x10_2/uL
KIDNEY_L (72 h, time 3 day): 0.9 g
KIDNEY_R (72 h, time 3 day): 1 g
KIDNEY_TOTAL (72 h, time 3 day): 1.9 g
LIVER (72 h, time 3 day): 8.7 g
ALP [1]: 1528.2 IU/L
AST [1]: 75.8 IU/L
CRE [1]: 0.2 mg/dL
Ca [1]: 11 mg/dL
DBIL [1]: 0.002 mg/dL
GLC [1]: 180.8 mg/dL
IP [1]: 7.3 mg/dL
K [1]: 4.3 meq/L
LDH [1]: 270.4 IU/L
PL [1]: 132.6 mg/dL
RALB [1]: 3.1 g/dL
TBIL [1]: 0.026 mg/dL
TG [1]: 54.8 mg/dL
TP [1]: 5.6 g/dL
gamma-GTP [1]: 1.4 IU/L
TERMINAL_BW ([…], time 7 day): 219.4 g
TERMINAL_BW ([…], time 14 day): 226 g
TERMINAL_BW ([…], time 28 day): 172 g
APTT ([…], tissue Blood, time 7 day): 27.5 s
Bas ([…], tissue Blood, time 7 day): 0%
Eos ([…], tissue Blood, time 7 day): 0.8%
Fbg ([…], tissue Blood, time 7 day): 299.8 mg/dL
Hb ([…], tissue Blood, time 7 day): 14.3 g/dL
Ht ([…], tissue Blood, time 7 day): 42.4%
Lym ([…], tissue Blood, time 7 day): 82.8%
MCHC ([…], tissue Blood, time 7 day): 33.6%
MCV ([…], tissue Blood, time 7 day): 59.8 fL
Mono ([…], tissue Blood, time 7 day): 3.6%
Neu ([…], tissue Blood, time 7 day): 11.4%
PT ([…], tissue Blood, time 7 day): 16 s
Plat ([…], tissue Blood, time 7 day): 136.4 x10_4/uL
RBC ([…], tissue Blood, time 7 day): 708.8 x10_4/ul
Ret ([…], tissue Blood, time 7 day): 1%
WBC ([…], tissue Blood, time 7 day): 54.2 x10_2/uL
APTT ([…], tissue Blood, time 14 day): 26.8 s
Bas ([…], tissue Blood, time 14 day): 0%
Eos ([…], tissue Blood, time 14 day): 0.4%
Fbg ([…], tissue Blood, time 14 day): 276.4 mg/dL
Hb ([…], tissue Blood, time 14 day): 14.9 g/dL
Ht ([…], tissue Blood, time 14 day): 43.4%
Lym ([…], tissue Blood, time 14 day): 80.8%
MCHC ([…], tissue Blood, time 14 day): 34.3%
MCV ([…], tissue Blood, time 14 day): 58.8 fL
Mono ([…], tissue Blood, time 14 day): 4%
Neu ([…], tissue Blood, time 14 day): 13.4%
PT ([…], tissue Blood, time 14 day): 15.3 s
Plat ([…], tissue Blood, time 14 day): 68.4 x10_4/uL
RBC ([…], tissue Blood, time 14 day): 739 x10_4/ul
Ret ([…], tissue Blood, time 14 day): 0.4%
WBC ([…], tissue Blood, time 14 day): 50.8 x10_2/uL
APTT ([…], tissue Blood, time 28 day): 17.9 s
Bas ([…], tissue Blood, time 28 day): 0%
Eos ([…], tissue Blood, time 28 day): 0%
Fbg ([…], tissue Blood, time 28 day): 270 mg/dL
Hb ([…], tissue Blood, time 28 day): 12.1 g/dL
Ht ([…], tissue Blood, time 28 day): 33%
Lym ([…], tissue Blood, time 28 day): 77%
MCH ([…], tissue Blood, time 28 day): 18.5 pg
MCHC ([…], tissue Blood, time 28 day): 36.7%
MCV ([…], tissue Blood, time 28 day): 50.5 fL
Mono ([…], tissue Blood, time 28 day): 3%
Neu ([…], tissue Blood, time 28 day): 20%
PT ([…], tissue Blood, time 28 day): 16.9 s
Plat ([…], tissue Blood, time 28 day): 3.1 x10_4/uL
RBC ([…], tissue Blood, time 28 day): 653 x10_4/ul
Ret ([…], tissue Blood, time 28 day): 0.1%
WBC ([…], tissue Blood, time 28 day): 32.4 x10_2/uL
KIDNEY_L ([…], time 7 day): 1 g
KIDNEY_R ([…], time 7 day): 1 g
KIDNEY_TOTAL ([…], time 7 day): 2 g
KIDNEY_L ([…], time 14 day): 1.3 g
KIDNEY_R ([…], time 14 day): 1.3 g
KIDNEY_TOTAL ([…], time 14 day): 2.6 g
KIDNEY_L ([…], time 28 day): 2.8 g
KIDNEY_R ([…], time 28 day): 2.8 g
KIDNEY_TOTAL ([…], time 28 day): 5.6 g
LIVER ([…], time 7 day): 10 g
LIVER ([…], time 14 day): 8.8 g
LIVER ([…], time 28 day): 6.8 g
ALP ([…], tissue Plasma, time 7 day): 1309.4 IU/L
ALT ([…], tissue Plasma, time 7 day): 31.2 IU/L
AST ([…], tissue Plasma, time 7 day): 79 IU/L
BUN ([…], tissue Plasma, time 7 day): 18.4 mg/dL
CRE ([…], tissue Plasma, time 7 day): 0.2 mg/dL
DBIL ([…], tissue Plasma, time 7 day): 0.002 mg/dL
GLC ([…], tissue Plasma, time 7 day): 170.8 mg/dL
IP ([…], tissue Plasma, time 7 day): 5.9 mg/dL
K ([…], tissue Plasma, time 7 day): 4.1 meq/L
LDH ([…], tissue Plasma, time 7 day): 247.4 IU/L
PL ([…], tissue Plasma, time 7 day): 118.8 mg/dL
RALB ([…], tissue Plasma, time 7 day): 3.2 g/dL
TBIL ([…], tissue Plasma, time 7 day): 0.02 mg/dL
TC ([…], tissue Plasma, time 7 day): 63.4 mg/dL
TG ([…], tissue Plasma, time 7 day): 64.2 mg/dL
TP ([…], tissue Plasma, time 7 day): 5.8 g/dL
gamma-GTP ([…], tissue Plasma, time 7 day): 1.6 IU/L
ALP [2]: 720.4 IU/L
ALT [2]: 37.6 IU/L
AST [2]: 102.8 IU/L
BUN [2]: 42.2 mg/dL
CRE [2]: 0.5 mg/dL
DBIL [2]: 0.002 mg/dL
GLC [2]: 165.8 mg/dL
IP [2]: 5.5 mg/dL
K [2]: 4.2 meq/L
LDH [2]: 248.4 IU/L
PL [2]: 134.8 mg/dL
RALB [2]: 3.1 g/dL
TBIL [2]: 0.006 mg/dL
TC [2]: 86 mg/dL
TG [2]: 43 mg/dL
TP [2]: 5.8 g/dL
gamma-GTP [2]: 3.8 IU/L
ALP [3]: 311 IU/L
ALT [3]: 47 IU/L
AST [3]: 125 IU/L
BUN [3]: 332 mg/dL
CRE [3]: 3.6 mg/dL
Ca [3]: 9.1 mg/dL
Cl [3]: 93 meq/L
DBIL [3]: 0.01 mg/dL
GLC [3]: 210 mg/dL
IP [3]: 11.7 mg/dL
K [3]: 5.4 meq/L
LDH [3]: 2660 IU/L
Na [3]: 129 meq/L
PL [3]: 140 mg/dL
RALB [3]: 2.3 g/dL
TBIL [3]: 0 mg/dL
TC [3]: 77 mg/dL
TG [3]: 91 mg/dL
TP [3]: 4.5 g/dL
gamma-GTP [3]: 2 IU/L
